Data set [1] can be described thus: Solubility in aqueous buffers of different pH. As to conditions: for solubility: aqueous buffer. It counts as physicochemical.
The format of data set [2] is physicochemical. As to the method: The stability of crystalline amlodipine free base bulk and amlodipine free base tablets was assessed by storing samples for up to 6 or 12 weeks at 25° C./60% RH, 40° C./75% RH and 50° C./20% RH. Changes were monitored using a stability-indicating HPLC method. Results were calculated by normalised peak area (npa). Degradants were identified by comparison of their relative retention times against impurity standards.

≈ marks a conversion by molar mass, not a printed value.

As to `CCOC(=O)C1=C(COCCN)NC(C)=C(C(=O)OC)C1c1ccccc1Cl` (stereo not shown) [solid free base initially synthesised, Amlodipine, reference compound], the “Solubility (in words)” value in data set [1] (solid free base initially synthesised in-house, no conditions given) is given as “poorly soluble”.

For the molecule `CCOC(=O)C1=C(COCCN)NC(C)=C(C(=O)OC)C1c1ccccc1Cl` (racemic) [Example 2, Amlodipine], the solubility in data set [1] (pH 1.2, simulated gastric fluid, SGN pH: 1.20) is above 5000 µg/mL; in data set [1] (Acetate pH: 5.93), above 5000 µg/mL; in data set [1] (Glycine pH: 9.25) it was 130 µg/mL (≈ 318 µM); in data set [1] (NaOH pH: 11.44), below 50 µg/mL; in data set [1] (Phosphate pH: 7.71), 720 µg/mL (≈ 1760 µM).

In the case of `CCOC(=O)C1=C(COCCN)NC(C)=C(C(=O)OC)C1c1ccccc1Cl` (stereo not shown) [crystalline amlodipine free base, 2-[(2-aminoethoxy)]-methyl-4-(2-chlorophenyl)-3-ethoxycarbonyl-5-methoxycarbonyl-6-methyl-1,4-dihydropyridine], the “Stability with respect to formation of known and unknown degradants” value in data set [2] was “stability was demonstrated”.

The values above are taken from US6680334B2, “Crystalline material” (Pfizer Inc, priority 2001, dated 2004).
